One assay concerns the target JAK2 (Homo sapiens (Human), UniProt O60674). The assay can be described thus: Jak Biochemical HTRF Assay (JAK2).
In another assay the target is JAK1 (Homo sapiens (Human), UniProt P23458). As to the kind of experiment: Jak Biochemical HTRF Assay (JAK1). Particulars: recombinant GST-tagged catalytic domain, [ATP] 31.8 μM, unit not given (compound concentrations tested given in nM). An excerpt:
Jak Biochemical HTRF Assay Protocol
Subsequent reagent additions employed an Agilent Bravo.
A general note: TR-FRET usually uses a lanthanide donor and a delayed reading to cut background.

Where [1] appears, read: read-out: JAK2 IC50, recombinant GST-tagged catalytic domain, [ATP] 8.5 μM, unit not given (compound concentrations tested given in nM).
[2] abbreviates: JAK2 IC50, recombinant GST-tagged catalytic domain, [ATP] 8.5 μM, unit not given (compound concentrations tested given in nM).

The structures appear in SMILES notation. Like-named read-outs stand apart in the source and are kept apart here.

Chain of JAK1 (P23458 875-1153): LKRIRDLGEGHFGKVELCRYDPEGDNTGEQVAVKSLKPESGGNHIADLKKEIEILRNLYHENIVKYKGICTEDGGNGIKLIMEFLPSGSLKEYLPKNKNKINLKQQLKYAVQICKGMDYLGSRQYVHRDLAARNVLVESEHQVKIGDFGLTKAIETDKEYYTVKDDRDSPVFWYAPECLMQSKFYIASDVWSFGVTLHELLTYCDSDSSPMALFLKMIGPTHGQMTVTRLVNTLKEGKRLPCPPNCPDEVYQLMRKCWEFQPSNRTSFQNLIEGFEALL
Chain of JAK2 (O60674 849-1124): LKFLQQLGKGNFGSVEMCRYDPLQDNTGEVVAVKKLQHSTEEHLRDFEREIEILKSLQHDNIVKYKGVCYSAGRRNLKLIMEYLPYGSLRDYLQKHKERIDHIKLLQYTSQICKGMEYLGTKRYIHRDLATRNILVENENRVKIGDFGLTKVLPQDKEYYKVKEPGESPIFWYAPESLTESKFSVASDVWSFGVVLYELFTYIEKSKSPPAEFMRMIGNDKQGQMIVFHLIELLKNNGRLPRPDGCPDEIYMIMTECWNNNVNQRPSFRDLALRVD
Method for JAK2: The ability of compounds to inhibit the activity of JAK1, JAK2, JAK3, and TYK2 was measured using a recombinant purified GST-tagged catalytic domain for each enzyme (Invitrogen JAK1 #M4290, JAK2 #M4290, JAK3 #M4290, TYK2 #M4290) in an HTRF format biochemical assay. […] Subsequent reagent additions employed an Agilent Bravo. […] After equilibration, 2 μL of 10×ATP in 1× assay buffer was added to initiate the kinase reaction and the plates were shaken and then incubated at room temperature for 120 minutes. […] After normalization to untreated controls, the percent inhibition of the HTRF signal at each compound concentration was calculated. The plot of percent inhibition versus the log of compound concentration was fit with a 4-parameter dose response equation to calculate IC50 values.
Final reaction conditions were:

`CC1(C)CN(S(=O)(=O)c2ccc(Nc3nn([C@H]4COCC[C@@H]4C#N)c4cc[nH]c(=O)c34)cc2)CCO1` [Example 1-71, (3R,4S)-3-[3-({4-[(2,2-dimethylmorpholin-4-yl)sulfonyl]phenyl}amino)-4-oxo-4,5-dihydro-1H-pyrazolo[4,3-c]pyridin-1-yl]tetrahydro-2H-pyran-4-carbonitrile]: the IC50 is 0.7 nM on JAK2 (setting [1]) and 0.22 nM at JAK1.
Consider `N#C[C@H]1CCOC[C@@H]1n1nc(Nc2ccc(C3(C(F)(F)F)CCCCN3)cc2)c2c(=O)[nH]ccc21` (single isomer, unassigned) [Example 2-8, (3R,4S)-3-[4-oxo-3-({4-[(2R or 2S)-2-(trifluoromethyl)piperidin-2-yl]phenyl}amino)-4,5-dihydro-1H-pyrazolo[4,3-c]pyridin-1-yl] tetrahydro-2H-pyran-4-carbonitrile], for which the IC50 at JAK2 (setting [2]) and at JAK1 was 0.05 nM each time.
With `CN(C)S(=O)(=O)c1ccc(Nc2nn([C@H]3COCC[C@@H]3C#N)c3cc[nH]c(=O)c23)cn1` [Example 1-67, 5-({1-[(3R,4S)-4-cyanotetrahydro-2H-pyran-3-yl]-4-oxo-4,5-dihydro-1H-pyrazolo[4,3-c]pyridin-3-yl}amino)-N,N-dimethylpyridine-2-sulfonamide], the IC50 is 1.92 nM at JAK2 (setting [1]) and 0.7 nM on JAK1.
With `CCNC(c1ccc(Nc2nn([C@H]3COCC[C@@H]3C#N)c3cc[nH]c(=O)c23)cc1)C(F)(F)F` (single isomer, unassigned) [Example 1-54, (3R,4S)-3-[3-({4-[(1R or 1S)-1-(ethylamino)-2,2,2-trifluoroethyl]phenyl}amino)-4-oxo-4,5-dihydro-1H-pyrazolo[4,3-c]pyridin-1-yl]tetrahydro-2H-pyran-4-carbonitrile], the IC50 at JAK2 (setting [2]) was 0.14 nM; at JAK1 it was 0.07 nM.
With `CC1(C)CC1NC(c1ccc(Nc2nn([C@H]3COCC[C@@H]3C#N)c3cc[nH]c(=O)c23)cc1)C(F)(F)F` (single isomer, unassigned) [Example 1-47, (3R,4S)-3-{3-[(4S or 4R-{1S or 1R-[(2,2-dimethylcyclopropyl)amino]-2,2,2-trifluoroethyl}phenyl)amino]-4-oxo-4,5-dihydro-1H-pyrazolo[4,3-c]pyridin-1-yl}tetrahydro-2H-pyran-4-carbonitrile], the results for the IC50 on JAK2 (setting [2]) and at JAK1 were 0.43 nM and 0.27 nM, respectively.
For `CN(C)C(c1ccc(Nc2nn([C@H]3COCC[C@@H]3C#N)c3cc[nH]c(=O)c23)cc1)C(F)(F)F` (single isomer, unassigned) [Example 1-18, (3R,4S)-3-[3-({4-[(1R, or 1S)-1-(dimethylamino)-2,2,2-trifluoroethyl]phenyl}amino)-4-oxo-4,5-dihydro-1H-pyrazolo[4,3-c]pyridin-1-yl]tetrahydro-2H-pyran-4-carbonitrile], in that order: 0.13 nM and 0.07 nM.
For `CC(C)(C)S(=O)(=O)c1ccc(Nc2nn(C3COCCC[C@H]3C#N)c3cc[nH]c(=O)c23)cc1` (single isomer, unassigned) [Example 1-24, (3R,4R or 3S,4S)-3-(3-{[4-(tert-butylsulfonyl)phenyl]amino}-4-oxo-4,5-dihydro-1H-pyrazolo[4,3-c]pyridin-1-yl)oxepane-4-carbonitrile], in that order: 14.7 nM and 12.4 nM.
For the compound `CC1(C)CC1NC(c1ccc(Nc2nn([C@H]3COCC[C@@H]3C#N)c3cc[nH]c(=O)c23)cc1)C(F)(F)F` (single isomer, unassigned) [Example 1-46, (3R,4S)-3-{3-[(4S or 4R-{1S or 1R-[(2,2-dimethylcyclopropyl)amino]-2,2,2-trifluoroethyl}phenyl)amino]-4-oxo-4,5-dihydro-1H-pyrazolo[4,3-c]pyridin-1-yl}tetrahydro-2H-pyran-4-carbonitrile], the IC50 at JAK2 (setting [2]) stood at 0.21 nM; on JAK1, 0.14 nM.
As to `Cc1nc2ccc(Nc3nn([C@@H]4COCC[C@@H]4C#N)c4cc[nH]c(=O)c34)cc2s1` [Example 2-1, (3S,4S)-3-{3-[(2-methyl-1,3-benzothiazol-6-yl)amino]-4-oxo-4,5-dihydro-1H-pyrazolo[4,3-c]pyridin-1-yl}tetrahydro-2H-pyran-4-carbonitrile], the results for the IC50 on JAK2 (setting [1]) and at JAK1 were 0.89 nM and 0.03 nM, respectively.
For `C[S+]([O-])c1cc(Nc2nn([C@H]3COCC[C@@H]3C#N)c3cc[nH]c(=O)c23)ccc1F` (single isomer, unassigned) [Example 3-2, (3R,4S)-3-(3-((4-fluoro-3-((S or R)-methylsulfinyl)phenyl)amino)-4-oxo-4,5-dihydro-1H-pyrazolo[4,3-c]pyridin-1-yl)tetrahydro-2H-pyran-4-carbonitrile], the IC50 on JAK2 (setting [2]) came out at 13.7 nM; at JAK1 it was 0.89 nM.
In the case of `CC(C)NC(C)(C)c1ccc(Nc2nn([C@H]3COCC[C@@H]3C#N)c3cc[nH]c(=O)c23)cc1` [Example 1-61, (3R,4S)-3-{3-[(4-{1-methyl-1-[(1-methylethyl)amino]ethyl}phenyl)amino]-4-oxo-4,5-dihydro-1H-pyrazolo[4,3-c]pyridin-1-yl}tetrahydro-2H-pyran-4-carbonitrile], the IC50 at JAK2 (setting [1]) and at JAK1 was 0.3 nM each time.
Regarding `CC1CCCN1C(c1ccc(Nc2nn([C@H]3COCC[C@@H]3C#N)c3cc[nH]c(=O)c23)cc1)C(F)(F)F` (single isomer, unassigned) [Example 1-88, (3R,4S)-3-{4-oxo-3-[(4-{(1S or 1R)-2,2,2-trifluoro-1-[(2S or 2R)-2-methylpyrrolidin-1-yl]ethyl}phenyl)amino]-4,5-dihydro-1H-pyrazolo[4,3-c]pyridin-1-yl}tetrahydro-2H-pyran-4-carbonitrile], the figures for the IC50 on JAK2 (setting [2]) and at JAK1 were 0.09 nM and 0.11 nM, respectively.
Turning to `N#C[C@H]1CCOC[C@@H]1n1nc(Nc2ccc(C(N3CCCC3)C(F)(F)F)cc2)c2c(=O)[nH]ccc21` (single isomer, unassigned) [Example 1-42, (3R,4S)-3-[4-oxo-3-({4-[(1R or 1S)-2,2,2-trifluoro-1-pyrrolidin-1-ylethyl]phenyl}amino)-4,5-dihydro-1H-pyrazolo[4,3-c]pyridin-1-yl]tetrahydro-2H-pyran-4-carbonitrile], the IC50 at JAK2 (setting [2]) was determined as 0.13 nM; at JAK1 it was 0.05 nM.
On to `N#Cc1ccc(Nc2nn([C@H]3COCC[C@@H]3C#N)c3cc[nH]c(=O)c23)cc1F` [Example 1-32, (3R,4S)-3-{3-[(4-cyano-3-fluorophenyl)amino]-4-oxo-4,5-dihydro-1H-pyrazolo[4,3-c]pyridin-1-yl}tetrahydro-2H-pyran-4-carbonitrile], for which the IC50 stood at 2.11 nM at JAK2 (setting [1]) and 0.24 nM at JAK1.
Regarding `N#C[C@H]1CCOCC1n1nc(Nc2ccc(C(O)(c3ccncc3)C(F)(F)F)cc2)c2c(=O)[nH]ccc21` (single isomer, unassigned) [Example 1-95, (3R,4S)-3-(4-oxo-3-((4-((S or R)-2,2,2-trifluoro-1-hydroxy-1-(pyridin-4-yl)ethyl)phenyl)amino)-4,5-dihydro-1H-pyrazolo[4,3-c]pyridin-1-yl)tetrahydro-2H-pyran-4-carbonitrile], the IC50 at JAK2 (setting [2]) amounted to 0.09 nM; on JAK1, 0.06 nM.
Consider `CS(=O)(=O)c1ccc(Nc2nn([C@@H]3COCC[C@H]3C#N)c3cc[nH]c(=O)c23)cc1` [Example 1-1, (3S,4R)-3-(3-((4-(methylsulfonyl)phenyl)amino)-4-oxo-4,5-dihydro-1H-pyrazolo[4,3-c]pyridin-1-yl)tetrahydro-2H-pyran-4-carbonitrile], for which the IC50 on JAK2 (setting [1]) was determined as 11.5 nM; at JAK1, 7.06 nM.
`CC(C)NC(c1ccc(Nc2nn([C@H]3COCC[C@@H]3C#N)c3cc[nH]c(=O)c23)cc1)C(F)(F)F` (single isomer, unassigned) [Example 1-52, (3R,4S)-3-{4-oxo-3-[(4-{(1R or 1S)-2,2,2-trifluoro-1-[(1-methylethyl)amino]ethyl}phenyl)amino]-4,5-dihydro-1H-pyrazolo[4,3-c]pyridin-1-yl}tetrahydro-2H-pyran-4-carbonitrile]: the IC50 stood at 0.11 nM on JAK2 (setting [2]) and 0.08 nM on JAK1.
`CCNC(c1ccc(Nc2nn([C@H]3COCC[C@@H]3C#N)c3cc[nH]c(=O)c23)cc1)C(F)(F)F` (single isomer, unassigned) [Example 1-55, (3R,4S)-3-[3-({4-[(1S or 1R)-1-(ethylamino)-2,2,2-trifluoroethyl]phenyl}amino)-4-oxo-4,5-dihydro-1H-pyrazolo[4,3-c]pyridin-1-yl] tetrahydro-2H-pyran-4-carbonitrile]: the IC50 on JAK2 (setting [2]) stood at 0.12 nM; at JAK1, 0.08 nM.
Taken in the same sequence, the figures for `CC(C)(C)CNC(c1ccc(Nc2nn([C@H]3COCC[C@@H]3C#N)c3cc[nH]c(=O)c23)cc1)C(F)(F)F` (single isomer, unassigned) [Example 1-82, (3R,4S)-3-{3-[(4-{[1S or 1R)-1-[(2,2-dimethylpropyl)amino]-2,2,2-trifluoroethyl}phenyl)amino]-4-oxo-4,5-dihydro-1H-pyrazolo[4,3-c]pyridin-1-yl} tetrahydro-2H-pyran-4-carbonitrile] were 2.56 nM and 0.87 nM.
As for `CC(c1ccc(Nc2nn([C@H]3COCC[C@@H]3C#N)c3cc[nH]c(=O)c23)cc1)n1nccn1` (single isomer, unassigned) [Example 1-45, (3R,4S)-3-[4-oxo-3-({4-[(1R or 1S)-1-(2H-1,2,3-triazol-2-yl)ethyl]phenyl}amino)-4,5-dihydro-1H-pyrazolo[4,3-c]pyridin-1-yl]tetrahydro-2H-pyran-4-carbonitrile], the IC50 at JAK2 (setting [2]) was found to be 0.21 nM; on JAK1, 0.14 nM.
In the case of `CC(C)(C)OC(=O)CN1Cc2cc(Nc3nn([C@H]4COCC[C@@H]4C#N)c4cc[nH]c(=O)c34)ccc2S1(=O)=O` [Example 1-64, tert-butyl [5-({1-[(3R,4S)-4-cyanotetrahydro-2H-pyran-3-yl]-4-oxo-4,5-dihydro-1H-pyrazolo[4,3-c]pyridin-3-yl}amino)-1,1-dioxido-1,2-benzisothiazol-2(3H)-yl]acetate], the IC50 on JAK2 (setting [1]) stood at 0.3 nM; at JAK1, 0.04 nM.

The record behind these values is patent publication US9957265B2, “N-(2-cyano heterocyclyl) pyrazolo pyridones as janus kinase inhibitors” (Merck Sharp & Dohme Corp., priority 2013, dated 2018).
